The results in this text go back to ChEMBL document CHEMBL1153751, “Biologically active tetranorditerpenoids from the fungus Sclerotinia homoeocarpa causal agent of dollar spot in turfgrass” (J Nat Prod, 2009).

Structures are written as SMILES. Values after ≈ are worked out from the molar mass of the structure shown. Active and inactive are the calls of the source. The calls are words filed in the database; no cut-off is given here.

One data set has as its system Agrostis stolonifera. In words: Phytotoxicity against Agrostis stolonifera at 0.001 mg/ml. The class given is functional, organism-based.
Settings: not given
`C[C@@]12CC[C@@H](O)[C@]3(C)C4=CC(=O)OC[C@]45O[C@@H]5[C@@H](OC1=O)C23` (some centres not stated): the result was inactive.

For the compound `C[C@@]12C=CC[C@]3(C)C(=O)O[C@H](C=C4COC(=O)C=C41)C23` (some centres not stated), the outcome was inactive.

Take `C[C@@]12CC[C@@H](O)[C@]3(C)C(=O)O[C@H](C=C4COC(=O)C=C41)C23` (some centres not stated): the outcome was inactive.

The next data set has as its system Vero. Kind of data set: Cytotoxicity against african green monkey Vero cells at 4760 ng/ml after 48 hrs by neutral red dye staining. The class given is cell-based. Particulars: Chlorocebus sabaeus.
With `C[C@@]12CC[C@@H](O)[C@]3(C)C4=CC(=O)OC[C@]45O[C@@H]5[C@@H](OC1=O)C23` (some centres not stated), the “inhibition (INH)” value is recorded as “Not Active”.

On to `C[C@@]12CC[C@@H](O)[C@]3(C)C(=O)O[C@H](C=C4COC(=O)C=C41)C23` (some centres not stated), for which the “inhibition (INH)” value is reported as “Not Active”.

The test system of the next data set is Lactuca sativa. In words: Phytotoxicity against Lactuca sativa at 0.01 mg/ml. Format: functional, organism-based.
Settings: not given
Consider `C[C@@]12CC[C@@H](O)[C@]3(C)C(=O)O[C@H](C=C4COC(=O)C=C41)C23` (some centres not stated), for which the result was inactive.

A further data set concerns Agrostis stolonifera. In words: Phytotoxicity against Agrostis stolonifera at 0.1 mg/ml. The class given is functional, organism-based.
Settings: not given
On to `C[C@@]12CC[C@@H](O)[C@]3(C)C4=CC(=O)OC[C@]45O[C@@H]5[C@@H](OC1=O)C23` (some centres not stated), for which the result was Active.

Consider `C[C@@]12C=CC[C@]3(C)C(=O)O[C@H](C=C4COC(=O)C=C41)C23` (some centres not stated), for which the result was Active.

A further data set concerns SK-OV-3. Kind of data set: Cytotoxicity against human SKOV3 cells after 48 hrs by neutral red dye staining. Format: functional, cell-based. Particulars: SK-OV-3, 48 h.
In turn, `C[C@@]12C=CC[C@]3(C)C(=O)O[C@H](C=C4COC(=O)C=C41)C23` (some centres not stated) returned an IC50 of 6 µg/mL (≈ 22 µM).

For the next data set, the system named is KB. Kind of data set: Cytotoxicity against human KB cells at 10 ug/ml after 48 hrs by neutral red dye staining.
Settings: not given
Format: functional, cell-based.
For `C[C@@]12CC[C@@H](O)[C@]3(C)C4=CC(=O)OC[C@]45O[C@@H]5[C@@H](OC1=O)C23` (some centres not stated), the inhibition result is “inactive”.

On to `C[C@@]12CC[C@@H](O)[C@]3(C)C(=O)O[C@H](C=C4COC(=O)C=C41)C23` (some centres not stated), for which the inhibition result is “inactive”.

The test system of a further data set is Vero. Kind of data set: Cytotoxicity against african green monkey Vero cells after 48 hrs by neutral red dye staining. The class given is cell-based. Particulars: Chlorocebus sabaeus.
In turn, `C[C@@]12C=CC[C@]3(C)C(=O)O[C@H](C=C4COC(=O)C=C41)C23` (some centres not stated) came in with an IC50 of 3 µg/mL (≈ 11 µM).

In another data set the test system is Plasmodium falciparum. Kind of data set: microbe, parasite or virus in culture. Particulars: W2, 72 h.
Regarding `C[C@@]12C=CC[C@]3(C)C(=O)O[C@H](C=C4COC(=O)C=C41)C23` (some centres not stated), the IC50 came out at 0.13 µg/mL (≈ 0.477 µM).

Another data set deals with Plasmodium falciparum. In words: Antiplasmodial activity against chloroquine-resistant Plasmodium falciparum W2 assessed as LDH activity at 4760 ng/ml after 72 hrs by malstat reagent method. Format: functional, organism-based.
Settings: not given
In the case of `C[C@@]12CC[C@@H](O)[C@]3(C)C4=CC(=O)OC[C@]45O[C@@H]5[C@@H](OC1=O)C23` (some centres not stated), the inhibition result was “inactive”.

On to `C[C@@]12CC[C@@H](O)[C@]3(C)C(=O)O[C@H](C=C4COC(=O)C=C41)C23` (some centres not stated), for which the inhibition result was “inactive”.

In the next data set the test system is SK-OV-3. In words: Cytotoxicity against human SKOV3 cells at 10 ug/ml after 48 hrs by neutral red dye staining. The class given is functional, cell-based.
Settings: not given
As for `C[C@@]12CC[C@@H](O)[C@]3(C)C4=CC(=O)OC[C@]45O[C@@H]5[C@@H](OC1=O)C23` (some centres not stated), the inhibition entry is “inactive”.

As for `C[C@@]12CC[C@@H](O)[C@]3(C)C(=O)O[C@H](C=C4COC(=O)C=C41)C23` (some centres not stated), the inhibition result was “inactive”.

The next data set deals with Lactuca sativa. In words: Phytotoxicity against Lactuca sativa at 1 mg/ml. The class given is functional, organism-based.
Settings: not given
On to `C[C@@]12CC[C@@H](O)[C@]3(C)C4=CC(=O)OC[C@]45O[C@@H]5[C@@H](OC1=O)C23` (some centres not stated), for which the result was Active.

Consider `C[C@@]12C=CC[C@]3(C)C(=O)O[C@H](C=C4COC(=O)C=C41)C23` (some centres not stated), for which the outcome was Active.

As for `C[C@@]12CC[C@@H](O)[C@]3(C)C(=O)O[C@H](C=C4COC(=O)C=C41)C23` (some centres not stated), the result was Active.

Test system in the next data set: not listed separately
In words: Cytotoxicity against pig LLC-PK11 cells at 10 ug/ml after 48 hrs by neutral red dye staining. The class given is functional, cell-based, Sus scrofa.
Settings: not given
As for `C[C@@]12CC[C@@H](O)[C@]3(C)C4=CC(=O)OC[C@]45O[C@@H]5[C@@H](OC1=O)C23` (some centres not stated), the “Cytotoxicity at 10 ug/ml” value is “Not Active”.

`C[C@@]12CC[C@@H](O)[C@]3(C)C(=O)O[C@H](C=C4COC(=O)C=C41)C23` (some centres not stated): the “Cytotoxicity at 10 ug/ml” value was “Not Active”.

The test system of the next data set is Lemna aequinoctialis. Kind of data set: Phytotoxicity against Lemna paucicostata after 7 days. Format: functional, organism-based. Particulars: 168 h, read-out: I50.
Regarding `C[C@@]12CC[C@@H](O)[C@]3(C)C4=CC(=O)OC[C@]45O[C@@H]5[C@@H](OC1=O)C23` (some centres not stated), the IC50 worked out at 6.42 µM.

Consider `C[C@@]12C=CC[C@]3(C)C(=O)O[C@H](C=C4COC(=O)C=C41)C23` (some centres not stated), for which the IC50 stood at 0.73 µM.

Test system in the next data set: not listed separately
Kind of data set: Cytotoxicity against pig LLC-PK11 cells after 48 hrs by neutral red dye staining. Format: functional, cell-based. Particulars: Sus scrofa, LLC-PK11, 48 h.
`C[C@@]12C=CC[C@]3(C)C(=O)O[C@H](C=C4COC(=O)C=C41)C23` (some centres not stated) came in with an IC50 of 10 µg/mL (≈ 36.7 µM).

The next data set concerns KB. Kind of data set: Cytotoxicity against human KB cells after 48 hrs by neutral red dye staining. Format: functional, cell-based.
Settings: not given
Consider `C[C@@]12C=CC[C@]3(C)C(=O)O[C@H](C=C4COC(=O)C=C41)C23` (some centres not stated), for which the IC50 worked out at 4.3 µg/mL (≈ 15.8 µM).

The subject of the next data set is BT-549. In words: Cytotoxicity against human BT549 cells after 48 hrs by neutral red dye staining. The class given is functional, cell-based. Particulars: BT-549, 48 h.
Take `C[C@@]12C=CC[C@]3(C)C(=O)O[C@H](C=C4COC(=O)C=C41)C23` (some centres not stated): the IC50 is 9.6 µg/mL (≈ 35.3 µM).

In the next data set the test system is Agrostis stolonifera. Kind of data set: Phytotoxicity against Agrostis stolonifera at 0.01 mg/ml. The class given is functional, organism-based.
Settings: not given
With `C[C@@]12CC[C@@H](O)[C@]3(C)C(=O)O[C@H](C=C4COC(=O)C=C41)C23` (some centres not stated), the result was inactive.

The next data set deals with Plasmodium falciparum. In words: Antiplasmodial activity against chloroquine-sensitive Plasmodium falciparum D6 assessed as LDH activity at 4760 ng/ml after 72 hrs by malstat reagent method. Format: functional, organism-based.
Settings: not given
Regarding `C[C@@]12CC[C@@H](O)[C@]3(C)C4=CC(=O)OC[C@]45O[C@@H]5[C@@H](OC1=O)C23` (some centres not stated), the inhibition entry is “inactive”.

For the compound `C[C@@]12CC[C@@H](O)[C@]3(C)C(=O)O[C@H](C=C4COC(=O)C=C41)C23` (some centres not stated), the inhibition entry was “inactive”.

In a further data set the test system is BT-549. Kind of data set: Cytotoxicity against human BT549 cells at 10 ug/ml after 48 hrs by neutral red dye staining. Format: functional, cell-based.
Settings: not given
Consider `C[C@@]12CC[C@@H](O)[C@]3(C)C4=CC(=O)OC[C@]45O[C@@H]5[C@@H](OC1=O)C23` (some centres not stated), for which the inhibition result is “inactive”.

Consider `C[C@@]12CC[C@@H](O)[C@]3(C)C(=O)O[C@H](C=C4COC(=O)C=C41)C23` (some centres not stated), for which the inhibition result is “inactive”.

In another data set the test system is Lactuca sativa. Kind of data set: Phytotoxicity against Lactuca sativa at 0.1 mg/ml. Format: functional, organism-based.
Settings: not given
`C[C@@]12CC[C@@H](O)[C@]3(C)C4=CC(=O)OC[C@]45O[C@@H]5[C@@H](OC1=O)C23` (some centres not stated): the outcome was Active.

Consider `C[C@@]12C=CC[C@]3(C)C(=O)O[C@H](C=C4COC(=O)C=C41)C23` (some centres not stated), for which the outcome was Active.

For the next data set, the system named is SK-MEL. In words: Cytotoxicity against human SK-MEL cells at 10 ug/ml after 48 hrs by neutral red dye staining. The class given is functional, cell-based.
Settings: not given
For `C[C@@]12CC[C@@H](O)[C@]3(C)C(=O)O[C@H](C=C4COC(=O)C=C41)C23` (some centres not stated), the inhibition result was “inactive”.

A further data set relates to SK-MEL. Kind of data set: Cytotoxicity against human SK-MEL cells after 48 hrs by neutral red dye staining.
Settings: not given
Format: functional, cell-based.
Regarding `C[C@@]12CC[C@@H](O)[C@]3(C)C4=CC(=O)OC[C@]45O[C@@H]5[C@@H](OC1=O)C23` (some centres not stated), the IC50 was found to be 10 µg/mL (≈ 32.6 µM).

Consider `C[C@@]12C=CC[C@]3(C)C(=O)O[C@H](C=C4COC(=O)C=C41)C23` (some centres not stated), for which the IC50 was 2.3 µg/mL (≈ 8.45 µM).

For another data set, the system named is Agrostis stolonifera. In words: Phytotoxicity against Agrostis stolonifera at 1 mg/ml. Format: functional, organism-based.
Settings: not given
For the compound `C[C@@]12CC[C@@H](O)[C@]3(C)C4=CC(=O)OC[C@]45O[C@@H]5[C@@H](OC1=O)C23` (some centres not stated), the result was Active.

In the case of `C[C@@]12C=CC[C@]3(C)C(=O)O[C@H](C=C4COC(=O)C=C41)C23` (some centres not stated), the result was Active.

In the case of `C[C@@]12CC[C@@H](O)[C@]3(C)C(=O)O[C@H](C=C4COC(=O)C=C41)C23` (some centres not stated), the outcome was Active.

The test system of another data set is Lactuca sativa. Kind of data set: Phytotoxicity against Lactuca sativa at 0.001 mg/ml. Format: functional, organism-based.
Settings: not given
As for `C[C@@]12C=CC[C@]3(C)C(=O)O[C@H](C=C4COC(=O)C=C41)C23` (some centres not stated), the outcome was inactive.

For `C[C@@]12CC[C@@H](O)[C@]3(C)C(=O)O[C@H](C=C4COC(=O)C=C41)C23` (some centres not stated), the outcome was inactive.
